Like-named read-outs stand apart in the source and are kept apart here.
Target: T1, LmjIPCS (inositol phosphorylceramide synthase from L. major) (Leishmania major, UniProt E9AFX2)
T1 sequence (E9AFX2 1-338): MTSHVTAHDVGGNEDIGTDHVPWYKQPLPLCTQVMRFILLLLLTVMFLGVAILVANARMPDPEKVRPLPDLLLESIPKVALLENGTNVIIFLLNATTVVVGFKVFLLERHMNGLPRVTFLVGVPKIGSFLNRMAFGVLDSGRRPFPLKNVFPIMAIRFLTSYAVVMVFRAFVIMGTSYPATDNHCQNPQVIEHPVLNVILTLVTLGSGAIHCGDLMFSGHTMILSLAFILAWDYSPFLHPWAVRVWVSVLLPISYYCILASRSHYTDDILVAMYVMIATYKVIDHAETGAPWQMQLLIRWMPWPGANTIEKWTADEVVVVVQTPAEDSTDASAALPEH
Assay: biochemical
Type: biochemical
Parameters: inhibition: dose or concentration left out as unconfirmed
Conditions: for inhibition: read-out: inhibition LmjIPCS; for inhibition at 20000 µM: read-out: 20mM inhibition LmjIPCS

CN1C[C@H](CNC(=O)OCc2ccccc2)C[C@@H]2c3cccc4c3c(cn4C)C[C@H]21 [METERGOLINE]
inhibition: 11%

COc1ccc2cc(CCC(C)=O)ccc2c1 [NABUMETONE]
inhibition (NINDS set screen): 12%

N=C(N)NC(=O)c1nc(Cl)c(N)nc1N [AMILORIDE]
20mM inhibition LmjIPCS: 52%

CC(NC(C)(C)C)C(=O)c1cccc(Cl)c1 (stereo not drawn) [BUPROPION]
inhibition: 29%

N[C@@H](Cc1c[nH]c2ccccc12)C(=O)O [TRYPTOPHAN]
20mM inhibition LmjIPCS: 34%

CN(C)CCOC(=O)C(c1ccccc1)C1(O)CCCC1 (stereo not drawn) [CYCLOPENTOLATE]
inhibition (NINDS set screen): 16%

CCN(CC)C(=O)N1CCN(C)CC1 [DIETHYLCARBAMAZINE]
inhibition: -3%

NC(=O)N1c2ccccc2CC(=O)c2ccccc21 [OXCARBAZEPINE]
inhibition: -4%

O=C(O)c1cc(O)c2cccc(O)c2n1 [X[…]]
inhibition at 20000 µM: 8%

COc1cc2c(cc1O)CCNC2C (stereo not drawn) [SALSOLINE]
20mM inhibition LmjIPCS: 12%

CN(C)CCC(c1ccc(Cl)cc1)c1ccccn1 (stereo not drawn) [CHLORPHENIRAMINE]
20mM inhibition LmjIPCS: 68%

N#Cc1c(Cl)c(Cl)c(Cl)c(C#N)c1Cl [TETRACHLOROISOPHTHALONITRILE]
20mM inhibition LmjIPCS (NINDS set screen, compound at 20mM (so in the source)): 15%

Cc1c(N(C)CS(=O)(=O)[O-])c(=O)n(-c2ccccc2)n1C.[Na+] [DIPYRONE]
20mM inhibition LmjIPCS (NINDS set screen, single concentration 20mM as printed): -7.57%

S=C=NCc1ccccc1 [BENZYL ISOTHIOCYANATE]
inhibition at 20000 µM: 6%

NC(=O)C[S+]([O-])C(c1ccccc1)c1ccccc1 (stereo not drawn) [MODAFINIL]
inhibition at 20000 µM: 13%

CC[C@@]1(O)C(=O)OCc2c1cc1n(c2=O)Cc2cc3ccccc3nc2-1 [CAMPTOTHECIN]
inhibition at 20000 µM: 1.2%

Nc1ccc(S(=O)(=O)Nc2ccccn2)cc1 [SULFAPYRIDINE]
inhibition at 20000 µM: -1.38%

Cc1c(Cl)cccc1Nc1ccccc1C(=O)O [TOLFENAMIC ACID]
inhibition (screening of NINDS set, sheet Screen 1): 4.68%

Nc1nc(=O)c2nc(CNc3ccc(C(=O)N[C@@H](CCC(=O)O)C(=O)O)cc3)cnc2[nH]1 [FOLIC ACID]
inhibition: 5.56%

O=c1oc2ccccc2c(O)c1Cc1c(O)c2ccccc2oc1=O [DICUMAROL]
inhibition: -3%

CCOc1ccc2ccccc2c1C(=O)N[C@@H]1C(=O)N2[C@@H]1SC(C)(C)[C@@H]2C(=O)O [NAFCILLIN]
inhibition at 20000 µM: 4.73%

COc1cc(/C=C/C(=O)CC(=O)/C=C/c2ccc(O)c(OC)c2)ccc1O [CURCUMIN]
inhibition at 20000 µM: -10%

C[C@H]1C[C@@H]2[C@H]([C@@H](O)C[C@@]3(C)[C@H]2CC[C@]3(O)C(=O)CO)[C@@]2(C)C=CC(=O)C=C12 [METHYLPREDNISOLONE]
inhibition (NINDS set screen): 16%

CNC1(C)C2CCC(C2)C1(C)C (stereo not drawn) [MECAMYLAMINE]
inhibition (NINDS set screen): 17%

CC(C)(Oc1ccc(Cl)cc1)C(=O)O [CLOFIBRIC ACID]
20mM inhibition LmjIPCS: 56%

Cc1cc(O)cc(C)c1Cl [CHLOROXYLENOL]
20mM inhibition LmjIPCS: 53%

CSCC[C@H](NC=O)C(=O)N[C@@H](CC(C)C)C(=O)N[C@@H](Cc1ccccc1)C(=O)O
inhibition at 20000 µM: 19%

CCCCCC1C(=O)CCC1CC(=O)OC (stereo not drawn) [DIHYDROJASMONIC ACID, METHYL ESTER]
inhibition at 20000 µM: -2%

CCn1cc(C(=O)O)c(=O)c2cc(F)c(N3CCNCC3)cc21 [NORFLOXACIN]
inhibition: 17%

CC[N+](C)(C)Cc1ccccc1Br [BRETYLIUM]
inhibition: 14%

CC1(C)O[C@@H]2C[C@H]3[C@@H]4C[C@H](F)C5=CC(=O)CC[C@]5(C)[C@H]4[C@@H](O)C[C@]3(C)[C@]2(C(=O)CO)O1 [FLURANDRENOLIDE]
inhibition at 20000 µM: -15%

N[C@@H](CCC(=O)N[C@@H](CSC(CC(=O)O)C(=O)O)C(=O)NCC(=O)O)C(=O)O (stereo partly drawn) [S-(1,2-DICARBOXYETHYL)GLUTATHIONE]
inhibition (NINDS set screen): 14%

CC(C)c1c(C(=O)Nc2ccccc2)c(-c2ccccc2)c(-c2ccc(F)cc2)n1CC[C@@H](O)C[C@@H](O)CC(=O)O [ATORVASTATIN]
inhibition at 20000 µM: 9.48%

O=C1CC[C@@]2(O)[C@H]3Cc4ccc(O)c5c4[C@@]2(CCN3CC2CC2)[C@H]1O5 [NALTREXONE]
inhibition: 8%

CC1(C)O[C@@H]2[C@@H](CO[C@@]3(COS(N)(=O)=O)OC(C)(C)O[C@@H]23)O1 [TOPIRAMATE]
inhibition (NINDS set screen): 16%

Cn1c(=O)c2[nH]c(C3CCCC3)nc2n(C)c1=O [8-CYCLOPENTYLTHEOPHYLLINE]
inhibition at 20000 µM: 4.71%

COc1cc2c3cc1Oc1c(OC)c(OC)cc4c1[C@@H](Cc1ccc(O)c(c1)Oc1ccc(cc1)C[C@@H]3N(C)CC2)N(C)CC4 [BERBAMINE]
inhibition at 20000 µM: 18%

O=C1NC(=O)C(=O)C(=O)N1 [ALLOXAN]
inhibition at 20000 µM: -1.11%

O=C1c2ccc(O)c(O)c2C(=O)c2c(O)ccc(O)c21 [QUINALIZARIN]
inhibition (NINDS set screen): -2.7%
